# Results: patent publication US20170058314A1, “NOVEL METHODOLOGY FOR IDENTIFYING ANTI-PERSISTER ACTIVITY AND ANTIMICROBIAL SUSCEPTIBILITY FOR BORRELIA BURGDORFERI AND OTHER BACTERIA” (priority 2014, published 2017)
# Legend:
# [1] = system: stationary phase B. burgdorferi persisters (strain B31); test: SYBR Green I/PI viability assay (plate reader), FDA-approved drug library screen; settings: for Ratio of Green/Red fluorescence, Primary screening / Ratio of Green/Red fluorescence, Rescreening (first column) / Ratio of Green/Red fluorescence, Rescreening (second column): 50 μM, 7 days, stationary phase; for viability at 50 µM: Borreliella burgdorferi, 168 h, read-out: Residual viable cells (regression equation, SYBR Green I/PI assay)
# [2] = system: stationary phase B. burgdorferi persisters (strain B31); test: epifluorescence microscope counting after SYBR Green I/PI staining, FDA drug screen; settings: Borreliella burgdorferi, 168 h, read-out: Residual viable cells (epifluorescence microscope counting)
# [3] = system: round body form of B. burgdorferi; test: SYBR Green I/PI assay on amoxicillin-induced round body form; settings: for viability at 50 µM: Borreliella burgdorferi, 168 h, read-out: Residual viable cells (SYBR Green I/PI assay); for Ratios of green/red fluorescence, Primary screening / Ratios of green/red fluorescence, Rescreening (first column) / Ratios of green/red fluorescence, Rescreening (second column): round body form, 50 μM
# [4] = system: log phase and stationary phase B. burgdorferi culture; test: Antibiotic exposure assay, SYBR Green I/PI (drugs alone and combinations); settings: for viability at 10 µg/mL: Borreliella burgdorferi, 168 h, read-out: Live Cell % (residual viable B. burgdorferi), ten-day-old stationary phase culture enriched with micro-colonies, 10 μg/mL each drug, 7 days
# Description: To qualitatively determine the effect of antibiotics, 10 μL of each compound from the pre-diluted plate or pre-diluted stock was added to stationary phase B. burgdorferi culture in the 96-well plate. The final volume per well was adjusted to 100 μL at a concentration of 10 μg/mL for each antibiotic. Plates were sealed and placed in a 33° C. incubator for 7 days. The SYBR Green I/PI viability assay was used to assess the live and dead cells after antibiotic exposure as described (Feng, Wang, Shi, et al., 2014). Briefly, 10 μL of SYBR Green I (10,000×stock, Invitrogen) was mixed with 30 μL propidium iodide (PI, 20 mM) into 1.0 mL of sterile dH2O. Then, 10 μL of staining mixture was added to each well and mixed thoroughly. The plates were incubated at room temperature in the dark for 15 minutes followed by plate reading at excitation wavelength at 485 nm and the fluorescence intensity at 535 nm (green emission) and 635 nm (red emission) in microplate reader (HTS 7000 plus Bio Assay Reader, PerkinElmer Inc., USA). With least-square fitting analysis, the regression equation and regression curve of the relationship between percentage of live bacteria and green/red fluorescence ratios was obtained. The regression equation was used to calculate the percentage of live cells in each well of the 96-well plate.
# To qualitatively determine the effect of antibiotics, 10 μL of each compound (final concentration 50 μM) from the pre-diluted plate or pre-diluted stock was added to round body form or stationary phase B. burgdorferi culture in the 96-well plate. The final volume per well was adjusted to 100 μL. Plates were sealed and placed in a 33° C. incubator for 7 days. The SYBR Green I/PI viability assay was used to assess the live and dead cells after antibiotic exposure as described (Feng, Wang, Shi, et al., 2014). Briefly, 10 μL of SYBR Green I (10,000×stock, Invitrogen) was mixed with 30 μL propidium iodide (PI, 20 mM, Sigma-Aldrich) into 1.0 mL of sterile dH2O. Then, 10 μL staining mixture was added to each well and mixed thoroughly. The plates were incubated at room temperature in the dark for 15 minutes followed by plate reading at excitation wavelength at 485 nm and the fluorescence intensity at 535 nm (green emission) and 635 nm (red emission) in microplate reader (HTS 7000 plus Bio Assay Reader, PerkinElmer Inc., USA). With least-square fitting analysis, the regression equation and regression curve of the relationship between percentage of live and dead bacteria as shown in green/red fluorescence ratios was obtained. The regression equation was used to calculate the percentage of live cells in each well of the 96-well plate.
# Round body form and ten day old stationary phase (in brackets) B. burgdorferi culture was treated with 10 μg/mL drugs or their combinations for 7 days. Residual viable B. burgdorferi was calculated according to the regression equation and ratio of Green/Red fluorescence obtained by SYBR Green I/PI assay as described (Feng, Wang, Shi, et al., 2014). Direct microscopy counting was employed to rectify the results of the SYBR Green I/PI assay. […] Abbreviation: Dox, doxcycline; CefP, cefoperazone; DAP, daptomycin; CefM, cefmetazole; Scp, sulfachlorpyridazine; Art, artemisinin; Nft, nitrofurantoin.
# [5] = system: S. aureus strains (Newman, USA300, CA-409, CA-127, NY-315); test: Rapid SYBR Green/PI antibiotic susceptibility test; type: cell-based, Staphylococcus aureus; settings: for cut-off (averaged proportion of killed cells) for resistant strains / cut-off (averaged proportion of killed cells) for susceptible strains: 100 μg/mL, 1.5 hours; for percent killed, resistant strain CA-409: kanamycin 25, ciprofloxacin 50, gentamicin 400 μg/mL; for percent killed, sensitive Newman strain: kanamycin 25, erythromycin 400, ciprofloxacin 50, gentamicin 400 μg/mL
# [6] = system: B. burgdorferi (growing, strain B31); test: MIC determination, standard microdilution method; type: cell-based, Borrelia burgdorferi; settings: for sensitivity of log phase / multiplying B. burgdorferi (words, FIG. 12): MIC test
# [7] = 10 μg/mL drugs or combinations, 7 days
compound,measurement,setting,value
CC(=O)OCC1=C(C(=O)O)N2C(=O)[C@@H](NC(=O)Cc3cccs3)[C@H]2SC1 [Cephalothin],"Ratio of Green/Red fluorescence, Primary screening",[1],6.74
same,"Ratio of Green/Red fluorescence, Rescreening (first column)",[1],6.49
same,"Ratio of Green/Red fluorescence, Rescreening (second column)",[1],6.55
same,viability at 50 µM,[1],40%
same,viability at 50 µM,[2],49%
CC[C@H]1OC(=O)[C@H](C)[C@@H](O[C@H]2C[C@@](C)(OC)[C@@H](O)[C@H](C)O2)[C@H](C)[C@@H](O[C@@H]2O[C@H](C)C[C@H](N(C)C)[C@H]2O)[C@](C)(O)C[C@@H](C)CN(C)[C@H](C)[C@@H](O)[C@]1(C)O [Azithromycin],viability at 50 µM,[3],47%
same,"Ratios of green/red fluorescence, Primary screening",[3]; 7 days,6.79
same,"Ratios of green/red fluorescence, Rescreening (first column)",[3]; 7 days,6.52
same,"Ratios of green/red fluorescence, Rescreening (second column)",[3]; 7 days,6.42
same,"Ratio of Green/Red fluorescence, Primary screening",[1],8.33
same,"Ratio of Green/Red fluorescence, Rescreening (first column)",[1],8.10
same,"Ratio of Green/Red fluorescence, Rescreening (second column)",[1],7.92
same,viability at 50 µM,[1],80%
same,viability at 50 µM,[2],77%
"CCN(CCO)CCCC(C)Nc1ccnc2cc(Cl)ccc12 (centres unmarked) [Hcq, hydroxychloroquine]",viability at 10 µg/mL,[4],71%
NC[C@H]1O[C@H](O[C@H]2[C@H](O)[C@@H](O[C@H]3O[C@H](CO)[C@@H](O)[C@H](N)[C@H]3O)[C@H](N)C[C@@H]2N)[C@H](O)[C@@H](O)[C@@H]1O [kanamycin],cut-off (averaged proportion of killed cells) for resistant strains,[5],−0.01
same,cut-off (averaged proportion of killed cells) for susceptible strains,[5],−0.2
same,"percent killed, resistant strain CA-127","[5]; 30 minutes, kanamycin 25, ciprofloxacin 50 μg/mL",5%
same,"percent killed, resistant strain CA-409",[5]; 30 minutes,5%
same,"percent killed, resistant strain NY-315","[5]; 30 minutes, kanamycin 25, erythromycin 400 μg/mL",5%
same,"percent killed, sensitive Newman strain",[5]; 30 minutes,27%
Nc1nc(/C(=C/CC(=O)O)C(=O)N[C@@H]2C(=O)N3C(C(=O)O)=CCS[C@H]23)cs1 [Ceftibuten],"Ratio of Green/Red fluorescence, Primary screening",[1],6.81
same,"Ratio of Green/Red fluorescence, Rescreening (first column)",[1],6.78
same,"Ratio of Green/Red fluorescence, Rescreening (second column)",[1],7.27
same,viability at 50 µM,[1],49%
same,viability at 50 µM,[2],51%
gentamicin,cut-off (averaged proportion of killed cells) for resistant strains,[5],−0.2
same,cut-off (averaged proportion of killed cells) for susceptible strains,[5],−0.3
same,"percent killed, resistant strain CA-409",[5]; 30 minutes,10%
same,"percent killed, sensitive Newman strain",[5]; 30 minutes,27%
CN(C)CCn1nnnc1SCC1=C(C(=O)O)N2C(=O)[C@@H](NC(=O)Cc3csc(N)n3)[C@H]2SC1 [Cefotiam],"sensitivity of log phase / multiplying B. burgdorferi (words, FIG. 12)",[6],very sensitive
same,"Ratio of Green/Red fluorescence, Primary screening",[1],6.41
same,"Ratio of Green/Red fluorescence, Rescreening (first column)",[1],7.55
same,"Ratio of Green/Red fluorescence, Rescreening (second column)",[1],6.21
same,viability at 50 µM,[1],43%
same,viability at 50 µM,[2],42%
"Clc1ccc(COC(Cn2ccnc2)c2ccc(Cl)cc2Cl)c(Cl)c1 (centres unmarked) [Mcz, miconazole]","sensitivity of log phase / multiplying B. burgdorferi (words, FIG. 12)",[6],less potent
same,viability at 10 µg/mL,[4],65%
CN(C)[C@@H]1C(O)=C(C(N)=O)C(=O)[C@@]2(O)C(O)=C3C(=O)c4c(O)cccc4[C@@](C)(O)[C@H]3C[C@@H]12 [Tetracycline],viability at 50 µM,[1],50%
same,viability at 50 µM,[2],54%
C[C@@H]1CC[C@H]2[C@@H](C)C(=O)O[C@@H]3O[C@@]4(C)CC[C@@H]1[C@]32OO4 [Artemisinin],MIC,"[6]; Borreliella burgdorferi, growing B. burgdorferi, read-out: MIC",50 to 100 µg/mL
same,"Live cell %, ten day old stationary phase culture (in brackets)",[4]; [7],73%
same,"Live cell %, round body form",[3]; [7],28%
same,viability at 50 µM,[3],24%
same,"Ratios of green/red fluorescence, Primary screening",[3]; 7 days,5.96
same,"Ratios of green/red fluorescence, Rescreening (first column)",[3]; 7 days,6.14
same,"Ratios of green/red fluorescence, Rescreening (second column)",[3]; 7 days,6.17
